Test results reported in ChEMBL document CHEMBL3044753, “Polyamines May Modulate Both G Protein-Coupled Receptors and G Proteins” (Med Chem Res, 2004).
Calls of active or inactive are those of the source. The rule behind the calls is not given here.

How the values were obtained:
Right cardiac atrium [1] = assay: Negative ionotropic activity in electrically-paced Cavia porcellus (guinea pig) right atrium measured after 60 min by isometric transducer analysis in presence of AM 251; assay type: functional, tissue-based
[2] = target: Muscarinic acetylcholine receptor M3 (Homo sapiens) (UniProt P20309); assay: Allosteric modulation of Homo sapiens (human) recombinant muscarinic M3 receptor expressed in CHO cells assessed as inhibition of carbachol-induced [35S]GTPgammaS binding; assay type: functional, cell-based
Muscarinic acetylcholine receptor M3 (Homo sapiens), sequence (P20309 whole entry, looked up): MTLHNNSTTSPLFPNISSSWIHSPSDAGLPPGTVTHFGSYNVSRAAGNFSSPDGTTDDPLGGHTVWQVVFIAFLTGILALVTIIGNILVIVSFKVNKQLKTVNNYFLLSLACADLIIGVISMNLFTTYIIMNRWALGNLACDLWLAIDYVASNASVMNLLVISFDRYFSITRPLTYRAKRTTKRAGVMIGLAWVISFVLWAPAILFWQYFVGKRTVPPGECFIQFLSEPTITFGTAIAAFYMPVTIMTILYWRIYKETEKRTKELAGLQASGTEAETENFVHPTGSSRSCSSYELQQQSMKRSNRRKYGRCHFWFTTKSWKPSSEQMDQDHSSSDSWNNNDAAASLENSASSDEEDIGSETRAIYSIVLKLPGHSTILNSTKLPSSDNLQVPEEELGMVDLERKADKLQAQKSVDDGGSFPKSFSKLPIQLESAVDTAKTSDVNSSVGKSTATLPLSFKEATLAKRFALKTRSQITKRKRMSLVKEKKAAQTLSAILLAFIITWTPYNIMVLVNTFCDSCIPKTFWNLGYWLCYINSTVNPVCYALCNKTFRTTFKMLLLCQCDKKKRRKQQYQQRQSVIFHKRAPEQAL

Left cardiac atrium [3] = assay: Negative ionotropic activity in electrically-paced Cavia porcellus (guinea pig) left atrium measured after 60 min by isometric transducer analysis in presence of ANR 83; assay type: functional, tissue-based
Right cardiac atrium [4] = assay: Negative […] activity in electrically-paced Cavia porcellus (guinea pig) right atrium assessed as effect on force measured after 60 min by isometric transducer analysis in presence of benextramine/4-DAMP mustard relative to N-dodecyl lysine amide; assay type: functional
Right cardiac atrium [5] = assay: Negative ionotropic activity in electrically-paced Cavia porcellus (guinea pig) right atrium measured after 60 min by isometric transducer analysis in presence of prazosin; assay type: functional, tissue-based
Right cardiac atrium [6] = assay: Negative […] activity in electrically-paced Cavia porcellus (guinea pig) right atrium measured after 60 min by isometric transducer analysis in presence of thioperamide; assay type: functional, tissue-based
Right cardiac atrium [7] = assay: Negative ionotropic activity in electrically-paced Cavia porcellus (guinea pig) right atrium measured after 60 min by isometric transducer analysis in presence of naloxane; assay type: functional, tissue-based
Left cardiac atrium [8] = assay: Negative ionotropic activity in electrically-paced Cavia porcellus (guinea pig) left atrium measured after 60 min by isometric transducer analysis in absence of benextramine/4-DAMP mustard relative to N-dodecyl lysine amide; assay type: functional
Right cardiac atrium [9] = assay: Negative ionotropic activity in electrically-paced Cavia porcellus (guinea pig) right atrium measured after 60 min by isometric transducer analysis in presence of DPCPX; assay type: functional, tissue-based
Left cardiac atrium [10] = assay: Negative ionotropic activity in electrically-paced Cavia porcellus (guinea pig) left atrium measured after 60 min by isometric transducer analysis in presence of thioperamide; assay type: functional, tissue-based
[11] = target: T1, Muscarinic acetylcholine receptor M2 (Homo sapiens) (UniProt P08172); assay: Allosteric modulation of Homo sapiens (human) recombinant muscarinic M2 receptor expressed in CHO cells assessed as inhibition of carbachol-induced [35S]GTPgammaS binding; assay type: functional, cell-based
T1 sequence (whole entry): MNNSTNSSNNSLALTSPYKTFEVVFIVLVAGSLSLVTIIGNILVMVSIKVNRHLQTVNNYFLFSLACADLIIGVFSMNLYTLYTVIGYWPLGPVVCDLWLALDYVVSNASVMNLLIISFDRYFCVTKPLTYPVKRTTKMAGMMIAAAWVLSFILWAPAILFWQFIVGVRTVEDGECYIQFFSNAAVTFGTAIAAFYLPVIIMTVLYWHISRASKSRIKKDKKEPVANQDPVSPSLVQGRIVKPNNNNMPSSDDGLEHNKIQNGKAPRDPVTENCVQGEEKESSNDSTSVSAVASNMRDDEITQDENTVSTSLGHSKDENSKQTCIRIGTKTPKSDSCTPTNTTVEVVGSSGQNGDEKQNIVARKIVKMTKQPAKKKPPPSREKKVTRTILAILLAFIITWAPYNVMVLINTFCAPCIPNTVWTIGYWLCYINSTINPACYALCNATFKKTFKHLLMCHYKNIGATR

Left cardiac atrium [12] = assay: Negative ionotropic activity in electrically-paced Cavia porcellus (guinea pig) left atrium measured after 60 min by isometric transducer analysis in presence of benextramine; assay type: functional, tissue-based
Right cardiac atrium [13] = assay: Negative ionotropic activity in electrically-paced Cavia porcellus (guinea pig) right atrium measured after 60 min by isometric transducer analysis in presence of ANR 83; assay type: functional, tissue-based
Right cardiac atrium [14] = assay: Negative ionotropic activity in electrically-paced Cavia porcellus (guinea pig) right atrium measured after 60 min by isometric transducer analysis in presence of 4-DAMP mustard; assay type: functional, tissue-based
[15] = target: T2, Muscarinic acetylcholine receptor M5 (Homo sapiens) (UniProt P08912); assay: Binding affinity to Homo sapiens (human) recombinant muscarinic M5 receptor expressed in CHO cells assessed as [35S]GTPgammaS binding; assay type: functional, cell-based
T2 sequence (whole entry): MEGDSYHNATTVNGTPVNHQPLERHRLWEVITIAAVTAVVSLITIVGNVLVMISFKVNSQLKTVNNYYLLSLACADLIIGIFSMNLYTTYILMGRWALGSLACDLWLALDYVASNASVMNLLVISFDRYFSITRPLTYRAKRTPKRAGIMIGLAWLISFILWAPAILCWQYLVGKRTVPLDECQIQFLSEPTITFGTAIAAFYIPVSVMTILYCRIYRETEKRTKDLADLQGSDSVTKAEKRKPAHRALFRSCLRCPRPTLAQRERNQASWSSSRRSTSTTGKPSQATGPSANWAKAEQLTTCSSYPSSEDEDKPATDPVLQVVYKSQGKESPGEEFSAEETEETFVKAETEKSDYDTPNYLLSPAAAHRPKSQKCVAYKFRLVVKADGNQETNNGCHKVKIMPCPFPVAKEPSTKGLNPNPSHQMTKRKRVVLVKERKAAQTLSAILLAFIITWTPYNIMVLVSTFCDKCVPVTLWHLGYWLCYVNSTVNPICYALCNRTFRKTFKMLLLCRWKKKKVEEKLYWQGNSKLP

Right cardiac atrium [16] = assay: Negative ionotropic activity in electrically-paced Cavia porcellus (guinea pig) right atrium measured after 60 min by isometric transducer analysis in presence of pimozide; assay type: functional, tissue-based
Left cardiac atrium [17] = assay: Negative ionotropic activity in electrically-paced Cavia porcellus (guinea pig) left atrium measured after 60 min by isometric transducer analysis in presence of naloxane; assay type: functional, tissue-based
Right cardiac atrium [18] = assay: Negative ionotropic activity in electrically-paced Cavia porcellus (guinea pig) right atrium measured after 60 min by isometric transducer analysis in presence of benzalkonium; assay type: functional, tissue-based
Left cardiac atrium [19] = assay: Negative ionotropic activity in electrically-paced Cavia porcellus (guinea pig) left atrium measured after 60 min by isometric transducer analysis in presence of 4-DAMP mustard; assay type: functional, tissue-based
Left cardiac atrium [20] = assay: Negative ionotropic activity in electrically-paced Cavia porcellus (guinea pig) left atrium measured after 60 min by isometric transducer analysis in presence of AM 251; assay type: functional, tissue-based
Left cardiac atrium [21] = assay: Negative ionotropic activity in electrically-paced Cavia porcellus (guinea pig) left atrium measured after 60 min by isometric transducer analysis in presence of bupranolol; assay type: functional, tissue-based
Right cardiac atrium [22] = assay: Negative ionotropic activity in electrically-paced Cavia porcellus (guinea pig) right atrium measured after 60 min by isometric transducer analysis in presence of AM 630; assay type: functional, tissue-based
Left cardiac atrium [23] = assay: Negative ionotropic activity in electrically-paced Cavia porcellus (guinea pig) left atrium measured after 60 min by isometric transducer analysis in presence of pimozide; assay type: functional, tissue-based

Structure (SMILES) | Activity (Right cardiac atrium [1]) | Activity [2] | Activity (Left cardiac atrium [3]) | Efficacy (Right cardiac atrium [4]) [%] | Activity (Right cardiac atrium [5]) | Activity (Right cardiac atrium [6]) | Activity (Right cardiac atrium [7]) | Efficacy (Left cardiac atrium [8]) [%] | Activity (Right cardiac atrium [9]) | Activity (Left cardiac atrium [10]) | Activity [11] | Activity (Left cardiac atrium [12]) | Activity (Right cardiac atrium [13]) | Activity (Right cardiac atrium [14]) | Activity [15] | Activity (Right cardiac atrium [16]) | Activity (Left cardiac atrium [17]) | Activity (Right cardiac atrium [18]) | Activity (Left cardiac atrium [19]) | Activity (Left cardiac atrium [20]) | other results
COc1ccccc1CN1CCC(C2CCN(C(=O)CCCCCCC(=O)N3CCC(C4CCN(Cc5ccccc5OC)CC4)CC3)CC2)CC1 [PIPERTRAMINE AMIDE] | Active | Active | Active | 82 | Active | Active | Active | 90 | Active | Active | Active | Active | Active | Active | inactive | Active | Active | inactive | Active | Active | Activity (Left cardiac atrium [21]): Active; Activity (Right cardiac atrium [22]): Active; Activity (Left cardiac atrium [23]): Active
COc1ccccc1CN1CCC(C2CCN(CCCCCCCCN3CCC(C4CCN(Cc5ccccc5OC)CC4)CC3)CC2)CC1 [PIPERTRAMINE] | Active | Active | Active | 72 | Active | Active | Active | 96 | Active | Active | Active | Active | Active | Active | inactive | Active | Active | inactive | Active | Active | Activity (Left cardiac atrium [21]): Active; Activity (Right cardiac atrium [22]): Active; Activity (Left cardiac atrium [23]): Active
